Assay results from ChEMBL document CHEMBL5113513, “Selective Inhibitors of Medium-Size S1' Pocket Matrix Metalloproteinases: A Stepping Stone of Future Drug Discovery” (J Med Chem, 2022).
One block for each compound: values may come before it.

How the values were obtained:
Interstitial collagenase [1] = target: T1, Interstitial collagenase (Homo sapiens, UniProt P03956); assay: Inhibition of MMP-1 (unknown origin)
T1 sequence (P03956 whole entry): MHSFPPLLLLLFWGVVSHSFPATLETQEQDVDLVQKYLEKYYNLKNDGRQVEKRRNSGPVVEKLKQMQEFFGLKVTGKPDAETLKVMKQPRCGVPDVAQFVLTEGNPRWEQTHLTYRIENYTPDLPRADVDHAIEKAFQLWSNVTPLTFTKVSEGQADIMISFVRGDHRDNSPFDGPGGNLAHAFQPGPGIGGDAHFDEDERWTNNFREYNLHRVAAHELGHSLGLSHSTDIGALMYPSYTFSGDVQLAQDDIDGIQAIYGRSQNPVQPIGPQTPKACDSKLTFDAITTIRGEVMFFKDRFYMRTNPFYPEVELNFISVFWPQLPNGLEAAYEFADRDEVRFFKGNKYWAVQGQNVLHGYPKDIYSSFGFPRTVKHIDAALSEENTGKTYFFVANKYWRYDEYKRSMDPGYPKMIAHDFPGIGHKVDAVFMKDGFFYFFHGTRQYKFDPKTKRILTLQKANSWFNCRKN

[2] = target: T2, 72 kDa type IV collagenase (Homo sapiens, UniProt P08253)
Stromelysin-1 [3] = target: T3, Stromelysin-1 (Homo sapiens, UniProt P08254); assay: Inhibition of MMP-3 (unknown origin)
Matrilysin [4] = target: T4, Matrilysin (Homo sapiens, UniProt P09237); assay: Inhibition of MMP-7 (unknown origin)
T4 sequence (P09237 whole entry): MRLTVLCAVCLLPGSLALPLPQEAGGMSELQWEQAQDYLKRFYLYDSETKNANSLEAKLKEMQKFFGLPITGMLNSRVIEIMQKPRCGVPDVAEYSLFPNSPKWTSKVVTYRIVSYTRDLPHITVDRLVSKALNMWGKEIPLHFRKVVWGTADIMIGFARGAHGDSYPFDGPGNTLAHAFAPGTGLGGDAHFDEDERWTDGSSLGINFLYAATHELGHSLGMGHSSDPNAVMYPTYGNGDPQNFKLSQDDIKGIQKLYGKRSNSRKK

[5] = target: T5, Matrix metalloproteinase-9 (Homo sapiens, UniProt P14780); assay: Inhibition of MMP-9 (unknown origin)
Collagenase 3 [6] = target: T6, Collagenase 3 (Homo sapiens, UniProt P45452)
Description: Inhibition of MMP-13 (unknown origin)

[7] = target: T7, Matrix metalloproteinase-14 (Homo sapiens, UniProt P50281); assay: Inhibition of MMP-14 (unknown origin)
[8] = target: T2, 72 kDa type IV collagenase; assay: Inhibition of recombinant human MMP-2 using peptide substrate by ELISA
[9] = target: T5, Matrix metalloproteinase-9; assay: Inhibition of recombinant human MMP-9 using peptide substrate by ELISA
[10] = target: Macrophage metalloelastase (Homo sapiens, UniProt P39900); assay: Inhibition of recombinant human MMP-12 using peptide substrate by ELISA
Collagenase 3 [11] = target: T6, Collagenase 3; assay: Inhibition of recombinant human MMP-13 using peptide substrate by ELISA
[12] = Inhibition of recombinant human TACE using peptide substrate by ELISA
[13] = Half life in Sprague-Dawley rats at 33 mg/kg, sc; type: ADME, organism-based; details: rat, in vivo
[14] = AUC in Sprague-Dawley rats at 33 mg/kg, sc; type: ADME, organism-based; design: dose 33 mg/kg, route sc; details: rat, in vivo
[15] = Half life in Sprague-Dawley rat at 33 mg/kg, po; type: ADME, organism-based; details: in vivo
[16] = AUC in Sprague-Dawley rats at 33 mg/kg, po; type: ADME, organism-based; design: dose 33 mg/kg, route po; details: rat, in vivo
Interstitial collagenase [17] = target: T1, Interstitial collagenase; assay: Inhibition of human MMP-1 expressed in Escherichia coli BL21(DE3) using Mca-Pro-Leu-Gly-Leu-Dpa-Ala-Arg-NH2 as substrate preincubated for 30 mins followed by susbstrate addition by photon-counter spectrophotometer analysis
[18] = target: T2, 72 kDa type IV collagenase; assay: Inhibition of human MMP-2 expressed in Escherichia coli BL21(DE3) using Mca-Pro-Leu-Gly-Leu-Dpa-Ala-Arg-NH2 as substrate preincubated for 30 mins followed by susbstrate addition by photon-counter spectrophotometer analysis
Stromelysin-1 [19] = target: T3, Stromelysin-1; assay: Inhibition of human MMP-3 expressed in Escherichia coli BL21(DE3) using Mca-Pro-Leu-Gly-Leu-Dpa-Ala-Arg-NH2 as substrate preincubated for 30 mins followed by susbstrate addition by photon-counter spectrophotometer analysis
Matrilysin [20] = target: T4, Matrilysin; assay: Inhibition of human MMP-7 expressed in Escherichia coli BL21(DE3) using Mca-Pro-Leu-Gly-Leu-Dpa-Ala-Arg-NH2 as substrate preincubated for 30 mins followed by susbstrate addition by photon-counter spectrophotometer analysis
Neutrophil collagenase [21] = target: T8, Neutrophil collagenase (Homo sapiens, UniProt P22894); assay: Inhibition of human MMP-8 expressed in Escherichia coli BL21(DE3) using Mca-Pro-Leu-Gly-Leu-Dpa-Ala-Arg-NH2 as substrate preincubated for 30 mins followed by susbstrate addition by photon-counter spectrophotometer analysis
[22] = target: T5, Matrix metalloproteinase-9; assay: Inhibition of human MMP-9 expressed in Escherichia coli BL21(DE3) using Mca-Pro-Leu-Gly-Leu-Dpa-Ala-Arg-NH2 as substrate preincubated for 30 mins followed by susbstrate addition by photon-counter spectrophotometer analysis
Stromelysin-2 = Stromelysin-2 (Homo sapiens, UniProt P09238); assay: Inhibition of human MMP-10 expressed in Escherichia coli BL21(DE3) using Mca-Pro-Leu-Gly-Leu-Dpa-Ala-Arg-NH2 as substrate preincubated for 30 mins followed by susbstrate addition by photon-counter spectrophotometer analysis
Collagenase 3 [23] = target: T6, Collagenase 3; assay: Inhibition of human MMP-13 expressed in Escherichia coli BL21(DE3) using Mca-Pro-Leu-Gly-Leu-Dpa-Ala-Arg-NH2 as substrate preincubated for 30 mins followed by susbstrate addition by photon-counter spectrophotometer analysis
[24] = target: T7, Matrix metalloproteinase-14; assay: Inhibition of human MMP-14 expressed in Escherichia coli BL21(DE3) using Mca-Pro-Leu-Gly-Leu-Dpa-Ala-Arg-NH2 as substrate preincubated for 30 mins followed by susbstrate addition by photon-counter spectrophotometer analysis
HT-1080 = assay: Inhibition of cell invasion in human HT-1080 cells for 24 hrs by Calcein AM staining based fluorometric analysis; type: functional; details: HT-1080, 24 h
[25] = target: T2, 72 kDa type IV collagenase; assay: Inhibition of MMP-2 (unknown origin) using Mca-Pro-Leu-Gly-Leu-Dpa-Ala-Arg-NH2 as substrate by fluorimetric assay
[26] = target: T5, Matrix metalloproteinase-9; assay: Inhibition of MMP-9 (unknown origin) using Mca-Pro-Leu-Gly-Leu-Dpa-Ala-Arg-NH2 as substrate by fluorimetric assay
Neutrophil collagenase [27] = target: T8, Neutrophil collagenase; assay: Inhibition of MMP-8 (unknown origin)

T3 sequence (P08254 whole entry): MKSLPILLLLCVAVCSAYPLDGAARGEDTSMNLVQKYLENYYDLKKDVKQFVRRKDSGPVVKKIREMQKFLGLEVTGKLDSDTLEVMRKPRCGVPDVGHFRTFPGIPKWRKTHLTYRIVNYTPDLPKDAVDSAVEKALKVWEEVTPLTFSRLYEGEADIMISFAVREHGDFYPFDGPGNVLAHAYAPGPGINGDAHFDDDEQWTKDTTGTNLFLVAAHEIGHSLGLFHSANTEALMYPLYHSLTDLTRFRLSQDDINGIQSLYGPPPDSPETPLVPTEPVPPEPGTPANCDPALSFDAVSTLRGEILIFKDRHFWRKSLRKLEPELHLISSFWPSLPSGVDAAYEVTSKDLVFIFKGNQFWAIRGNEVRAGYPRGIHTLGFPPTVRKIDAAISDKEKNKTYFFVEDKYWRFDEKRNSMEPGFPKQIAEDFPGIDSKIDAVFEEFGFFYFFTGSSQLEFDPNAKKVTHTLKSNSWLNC
T5 sequence (P14780 whole entry): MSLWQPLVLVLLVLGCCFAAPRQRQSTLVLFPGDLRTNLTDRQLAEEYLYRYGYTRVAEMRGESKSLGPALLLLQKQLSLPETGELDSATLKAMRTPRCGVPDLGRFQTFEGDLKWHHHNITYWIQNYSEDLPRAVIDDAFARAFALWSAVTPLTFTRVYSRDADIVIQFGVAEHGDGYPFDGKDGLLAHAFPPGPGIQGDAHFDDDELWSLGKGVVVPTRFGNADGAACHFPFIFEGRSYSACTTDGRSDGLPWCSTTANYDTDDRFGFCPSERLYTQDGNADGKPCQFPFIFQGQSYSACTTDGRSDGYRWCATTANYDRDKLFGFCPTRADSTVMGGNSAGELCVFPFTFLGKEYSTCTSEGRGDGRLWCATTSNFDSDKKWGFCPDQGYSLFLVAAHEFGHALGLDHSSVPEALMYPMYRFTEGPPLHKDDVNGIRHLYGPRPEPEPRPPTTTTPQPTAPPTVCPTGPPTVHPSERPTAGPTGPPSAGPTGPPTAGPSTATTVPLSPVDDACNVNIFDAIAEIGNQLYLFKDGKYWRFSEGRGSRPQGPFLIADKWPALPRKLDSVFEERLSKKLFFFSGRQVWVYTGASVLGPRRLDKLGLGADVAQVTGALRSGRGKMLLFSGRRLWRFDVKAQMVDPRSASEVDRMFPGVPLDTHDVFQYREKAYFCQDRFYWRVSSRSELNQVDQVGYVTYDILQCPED
T2 sequence (P08253 whole entry): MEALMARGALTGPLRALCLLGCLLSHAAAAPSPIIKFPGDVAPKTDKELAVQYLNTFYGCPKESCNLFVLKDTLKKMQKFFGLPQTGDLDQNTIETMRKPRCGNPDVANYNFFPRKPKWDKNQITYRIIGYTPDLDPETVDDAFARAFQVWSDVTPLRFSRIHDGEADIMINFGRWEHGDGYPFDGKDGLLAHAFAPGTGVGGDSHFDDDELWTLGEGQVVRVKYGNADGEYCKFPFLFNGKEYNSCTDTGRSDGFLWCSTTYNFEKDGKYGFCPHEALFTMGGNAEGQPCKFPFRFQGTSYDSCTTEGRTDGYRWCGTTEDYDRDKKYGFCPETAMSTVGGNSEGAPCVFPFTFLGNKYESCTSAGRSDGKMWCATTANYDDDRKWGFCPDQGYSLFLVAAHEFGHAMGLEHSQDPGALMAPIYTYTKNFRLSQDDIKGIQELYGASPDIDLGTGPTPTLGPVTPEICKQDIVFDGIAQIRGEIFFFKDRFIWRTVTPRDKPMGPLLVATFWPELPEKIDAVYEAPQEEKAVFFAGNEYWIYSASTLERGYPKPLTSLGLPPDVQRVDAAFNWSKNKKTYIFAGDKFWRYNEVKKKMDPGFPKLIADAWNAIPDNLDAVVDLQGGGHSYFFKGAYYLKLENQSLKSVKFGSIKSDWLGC
T8 sequence (P22894 whole entry): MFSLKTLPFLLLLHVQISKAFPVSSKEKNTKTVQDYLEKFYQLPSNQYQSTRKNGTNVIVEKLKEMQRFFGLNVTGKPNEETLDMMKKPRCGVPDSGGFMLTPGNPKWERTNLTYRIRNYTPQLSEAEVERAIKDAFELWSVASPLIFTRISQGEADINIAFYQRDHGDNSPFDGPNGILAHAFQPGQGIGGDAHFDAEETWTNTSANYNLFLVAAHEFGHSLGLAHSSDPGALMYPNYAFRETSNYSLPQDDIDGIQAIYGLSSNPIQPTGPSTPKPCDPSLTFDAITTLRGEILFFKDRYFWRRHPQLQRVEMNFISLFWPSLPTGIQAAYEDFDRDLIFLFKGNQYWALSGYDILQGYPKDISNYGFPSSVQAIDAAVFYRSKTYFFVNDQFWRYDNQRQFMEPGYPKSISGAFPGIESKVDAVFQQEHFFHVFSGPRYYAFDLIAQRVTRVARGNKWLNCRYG
Sequence of Macrophage metalloelastase (P39900 whole entry): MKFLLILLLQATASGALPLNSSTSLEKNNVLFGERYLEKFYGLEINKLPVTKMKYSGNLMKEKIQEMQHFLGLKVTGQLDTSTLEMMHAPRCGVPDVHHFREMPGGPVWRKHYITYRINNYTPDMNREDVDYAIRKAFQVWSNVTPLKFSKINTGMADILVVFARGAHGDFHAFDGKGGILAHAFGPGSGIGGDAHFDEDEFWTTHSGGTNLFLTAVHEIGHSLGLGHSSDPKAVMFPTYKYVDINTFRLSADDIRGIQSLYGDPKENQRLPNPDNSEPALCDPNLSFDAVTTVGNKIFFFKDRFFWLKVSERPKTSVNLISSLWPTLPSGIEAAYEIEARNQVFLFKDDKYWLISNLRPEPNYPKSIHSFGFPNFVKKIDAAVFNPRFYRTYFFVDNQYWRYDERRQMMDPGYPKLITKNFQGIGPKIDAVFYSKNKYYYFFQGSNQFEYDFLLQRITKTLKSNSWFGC
Sequence of Stromelysin-2 (P09238 whole entry): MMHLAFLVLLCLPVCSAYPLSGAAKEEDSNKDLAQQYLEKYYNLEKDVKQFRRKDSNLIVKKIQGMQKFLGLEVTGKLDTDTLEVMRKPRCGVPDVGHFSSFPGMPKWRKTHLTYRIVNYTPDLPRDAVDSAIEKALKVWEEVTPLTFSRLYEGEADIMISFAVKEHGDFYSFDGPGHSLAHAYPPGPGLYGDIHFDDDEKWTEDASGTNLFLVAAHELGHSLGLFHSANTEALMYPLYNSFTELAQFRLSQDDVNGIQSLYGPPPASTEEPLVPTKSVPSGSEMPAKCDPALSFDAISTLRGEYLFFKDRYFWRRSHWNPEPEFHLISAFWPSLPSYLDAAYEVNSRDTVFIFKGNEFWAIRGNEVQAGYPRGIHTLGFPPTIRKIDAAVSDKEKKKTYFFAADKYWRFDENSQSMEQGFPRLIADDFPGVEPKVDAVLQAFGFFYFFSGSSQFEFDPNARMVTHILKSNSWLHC

Ki (Interstitial collagenase [1]): 4950 nM
SMILES: COc1ccc(-c2ccc(CN3C(C(=O)NO)CCS3(=O)=O)cc2)cc1 (stereo unspecified)

IC50 (Interstitial collagenase [1]): 380000 nM
IC50 [2]: 12500 nM
IC50 (Stromelysin-1 [3]): 364000 nM
IC50 (Matrilysin [4]): 14200 nM
IC50 [5]: 212000 nM
IC50 (Collagenase 3 [6]): 101000 nM
IC50 [7]: 165 nM
SMILES: O=C(O)CS(=O)(=O)c1ccc(-c2ccccc2)cc1

SMILES: O=C(NO)C1(S(=O)(=O)c2ccc(Oc3ccc(Cl)cc3)cc2)CCOCC1
Ki [2]: 0.22 nM
Ki (Stromelysin-1 [3]): 9.3 nM
Ki (Matrilysin [4]): 1200 nM

SMILES: O=C(NCCCCCNS(=O)(=O)c1ccc(Oc2ccccc2)cc1)P(=O)(O)O
IC50 [8]: 4 nM
IC50 [9]: > 100 nM
IC50 [10]: > 80 nM
IC50 (Collagenase 3 [11]): > 60 nM
IC50 [12]: > 100 nM
half-life [13]: 9.3 h
AUC [14]: 78000 ng·h/mL
half-life [15]: 10.5 h
AUC [16]: 6800 ng·h/mL

IC50 [7]: 1.8 nM
SMILES: CNC(=O)[C@@H](NC(=O)[C@H](CC(C)C)[C@H](O)C(=O)NO)C(C)(C)C

SMILES: NC(=O)[C@H](CCC(=O)O)NC(=O)[C@@H](CCC(=O)O)NC(=O)CCc1cc(-c2ccc(-c3cccc(Cl)c3)cc2)no1
Ki (Interstitial collagenase [17]): 17900 nM
Ki [18]: 76 nM
Ki (Stromelysin-1 [19]): 62 nM
Ki (Matrilysin [20]): 1200 nM
Ki (Neutrophil collagenase [21]): 181 nM
Ki [22]: 565 nM
Ki (Stromelysin-2): 48 nM
Ki (Collagenase 3 [23]): 40 nM
Ki [24]: 2060 nM

IC50 (HT-1080): 1000 nM
SMILES: COc1ccccc1Nc1nc(-c2sc(NC(C)=O)nc2C)cs1

SMILES: CC(=O)Nc1ccc(Oc2ccc(S(=O)(=O)CC3CS3)cc2)cc1 (stereo unspecified)
Ki (Interstitial collagenase [1]): > 154000 nM
Ki (Stromelysin-1 [3]): > 188000 nM
Ki [7]: > 230000 nM

IC50 [25]: 50 nM
IC50 [26]: 1800 nM
SMILES: O=C(NCCCCC(NS(=O)(=O)c1ccc(-c2ccccc2)cc1)C(=O)O)OCc1ccccc1 (stereo unspecified)

IC50 (Interstitial collagenase [1]): 1800 nM
IC50 [2]: 6 nM
IC50 (Stromelysin-1 [3]): 200 nM
IC50 (Matrilysin [4]): 24 nM
IC50 [5]: 140 nM
IC50 (Collagenase 3 [6]): 9.8 nM
IC50 [7]: 376 nM
SMILES: O=C(CS(=O)(=O)c1ccc(-c2ccccc2)cc1)NO

IC50 [5]: 0.704 nM
SMILES: O=C(CCC(NS(=O)(=O)c1ccc(-c2ccccc2)cc1)C(=O)O)NCc1ccccc1 (stereo unspecified)

IC50 (Interstitial collagenase [1]): 25 nM
IC50 [2]: 41 nM
IC50 (Stromelysin-1 [3]): 157 nM
IC50 [5]: 25 nM
IC50 (Collagenase 3 [6]): 4 nM
SMILES: CNC(=O)[C@@H](NC(=O)[C@H](CC(C)C)NC(=O)[C@H](S)CCN1C(=O)N(C)C(C)(C)C1=O)C(C)(C)C

Ki (Neutrophil collagenase [27]): 4 nM
SMILES: CN1C(=O)N(C[C@H](C(=O)NO)[C@H](CC2CCCC2)C(=O)N2CCCCC2)C(=O)C1(C)C

IC50 (Interstitial collagenase [1]): > 3000 nM
IC50 [2]: 0.41 nM
IC50 (Stromelysin-1 [3]): 130 nM
IC50 (Matrilysin [4]): 10000 nM
IC50 [5]: 16 nM
IC50 [7]: 7.7 nM
SMILES: CC(C)ON([C@@H](CCNC(=O)OCc1ccccc1)C(=O)NO)S(=O)(=O)c1ccc(-c2ccccc2)cc1
